# ChEMBL document CHEMBL3046063, “Synthesis and antimicrobial activity of 5-chloroindoline-2,3-dione derivatives” (2012)
# Legend:
# Assay type in all cases: functional
# [1] = system: Bacillus spizizenii; test: Antimicrobial activity against Bacillus subtilis subsp. spizizenii ATCC 6633 after 24 hr by broth dilution method; settings: ATCC 6633, 24 h
# [2] = system: Rhizoctonia solani; test: Antimicrobial activity against Rhizoctonia solani ATCC 76131 after 24 hr by broth dilution method; settings: ATCC 76131, 24 h
# [3] = system: Trichophyton longifusum; test: Antimicrobial activity against Trichophyton longifusum ATCC 22397 after 24 hr by broth dilution method; settings: ATCC 22397, 24 h
# [4] = system: Bacillus pumilus; test: Antimicrobial activity against Bacillus pumilus ATCC 14884 after 24 hr by broth dilution method; settings: ATCC 14884, 24 h
# [5] = system: Aspergillus fumigatus; test: Antimicrobial activity against Aspergillus fumigatus after 24 hr by broth dilution method
# [6] = system: Escherichia coli; test: Antimicrobial activity against Escherichia coli ATCC 25922 after 24 hr by broth dilution method; settings: ATCC 25922, 24 h
# [7] = system: Aspergillus flavus; test: Antimicrobial activity against Aspergillus flavus ATCC 15517 after 24 hr by broth dilution method; settings: ATCC 15517, 24 h
# [8] = system: Klebsiella pneumoniae; test: Antimicrobial activity against Klebsiella pneumoniae ATCC 13883 after 24 hr by broth dilution method; settings: ATCC 13883, 24 h
# [9] = system: Proteus mirabilis; test: Antimicrobial activity against Proteus mirabilis ATCC 49565 after 24 hr by broth dilution method; settings: ATCC 49565, 24 h
# [10] = system: Staphylococcus hominis; test: Antimicrobial activity against Staphylococcus hominis ATCC 27844 after 24 hr by broth dilution method; settings: ATCC 27844, 24 h
# [11] = system: Staphylococcus aureus; test: Antimicrobial activity against Staphylococcus aureus ATCC 25923 after 24 hr by broth dilution method; settings: ATCC 25923, 24 h
# [12] = system: Fusarium solani; test: Antimicrobial activity against Fusarium solani ATCC 38136 after 24 hr by broth dilution method; settings: ATCC 38136, 24 h
# [13] = system: Pseudomonas aeruginosa; test: Antimicrobial activity against Pseudomonas aeruginosa ATCC 10145 after 24 hr by broth dilution method; settings: ATCC 10145, 24 h
# [14] = system: Bacillus cereus; test: Antimicrobial activity against Bacillus cereus ATCC 11778 after 24 hr by broth dilution method; settings: ATCC 11778, 24 h
# [15] = system: Trichoderma viride; test: Antimicrobial activity against Hypocrea rufa ATCC 52440 after 24 hr by broth dilution method; settings: ATCC 52440, 24 h
# [16] = system: Staphylococcus epidermidis; test: Antimicrobial activity against Staphylococcus epidermidis ATCC 12228 after 24 hr by broth dilution method; settings: ATCC 12228, 24 h
# [17] = system: Alternaria alternata; test: Antimicrobial activity against Alternaria alternata ATCC 66868 after 24 hr by broth dilution method; settings: ATCC 66868, 24 h
# [18] = system: Candida albicans; test: Antimicrobial activity against Candida albicans ATCC 10231 after 24 hr by broth dilution method; settings: ATCC 10231, 24 h
# [19] = system: Proteus vulgaris; test: Antimicrobial activity against Proteus vulgaris ATCC 13315 after 24 hr by broth dilution method; settings: ATCC 13315, 24 h
# [20] = system: Microsporum canis; test: Antimicrobial activity against Arthroderma otae ATCC 11622 after 24 hr by broth dilution method; settings: ATCC 11622, 24 h
# [21] = system: Aspergillus awamori; test: Antimicrobial activity against Aspergillus awamori ATCC 22342 after 24 hr by broth dilution method; settings: ATCC 22342, 24 h
# [22] = system: Aspergillus niger; test: Antimicrobial activity against Aspergillus niger ATCC 9142 after 24 hr by broth dilution method; settings: ATCC 9142, 24 h
# [23] = system: Salmonella typhi; test: Antimicrobial activity against Salmonella enterica subsp. enterica serovar Typhi ATCC 19430 after 24 hr by broth dilution method; settings: ATCC 19430, 24 h
# [24] = system: Micrococcus luteus; test: Antimicrobial activity against Micrococcus luteus ATCC 4698 after 24 hr by broth dilution method; settings: ATCC 4698, 24 h
SMILES,MIC [1],MIC [2],MIC [3],MIC [4],MIC [5],MIC [6],MIC [7],MIC [8],MIC [9],MIC [10],MIC [11],MIC [12],MIC [13],MIC [14],MIC [15],MIC [16],MIC [17],MIC [18],MIC [19],MIC [20],further results
CN(C)c1ccc(C2C(Cl)C(=O)N2/N=C2\C(=O)Nc3ccc(Cl)cc32)cc1 (centres undefined),18.8 µg/mL,9.37 µg/mL,4.68 µg/mL,9.37 µg/mL,4.68 µg/mL,9.37 µg/mL,4.68 µg/mL,9.37 µg/mL,18.8 µg/mL,18.8 µg/mL,18.8 µg/mL,9.37 µg/mL,9.37 µg/mL,18.8 µg/mL,4.68 µg/mL,9.37 µg/mL,4.68 µg/mL,4.68 µg/mL,9.37 µg/mL,4.68 µg/mL,MIC [21]: 9.37 µg/mL; MIC [22]: 9.37 µg/mL; MIC [23]: 9.37 µg/mL; MIC [24]: 18.8 µg/mL
CN(C)c1ccc(C2SCC(=O)N2/N=C2\C(=O)Nc3ccc(Cl)cc32)cc1 (centres undefined),18.8 µg/mL,4.68 µg/mL,4.68 µg/mL,9.37 µg/mL,4.68 µg/mL,18.8 µg/mL,4.68 µg/mL,18.8 µg/mL,9.37 µg/mL,9.37 µg/mL,9.37 µg/mL,4.68 µg/mL,18.8 µg/mL,18.8 µg/mL,4.68 µg/mL,18.8 µg/mL,4.68 µg/mL,9.37 µg/mL,18.8 µg/mL,9.37 µg/mL,MIC [21]: 9.37 µg/mL; MIC [22]: 4.68 µg/mL; MIC [23]: 9.37 µg/mL; MIC [24]: 18.8 µg/mL
O=C1Nc2ccc(Cl)cc2/C1=N/N1C(=O)CSC1c1ccccc1Cl (centres undefined),300 µg/mL,75 µg/mL,150 µg/mL,150 µg/mL,150 µg/mL,150 µg/mL,150 µg/mL,150 µg/mL,300 µg/mL,150 µg/mL,300 µg/mL,150 µg/mL,150 µg/mL,150 µg/mL,75 µg/mL,150 µg/mL,150 µg/mL,150 µg/mL,300 µg/mL,75 µg/mL,MIC [21]: 150 µg/mL; MIC [22]: 75 µg/mL; MIC [23]: 150 µg/mL; MIC [24]: 300 µg/mL
O=C1Nc2ccc(Cl)cc2/C1=N/N1C(=O)CSC1c1ccco1 (centres undefined),37.5 µg/mL,18.8 µg/mL,18.8 µg/mL,37.5 µg/mL,18.8 µg/mL,75 µg/mL,37.5 µg/mL,75 µg/mL,75 µg/mL,37.5 µg/mL,75 µg/mL,37.5 µg/mL,75 µg/mL,75 µg/mL,37.5 µg/mL,75 µg/mL,37.5 µg/mL,18.8 µg/mL,75 µg/mL,37.5 µg/mL,MIC [21]: 37.5 µg/mL; MIC [22]: 37.5 µg/mL; MIC [23]: 37.5 µg/mL; MIC [24]: 75 µg/mL
O=C1Nc2ccc(Cl)cc2/C1=N/N1C(=O)CSC1c1ccc([N+](=O)[O-])cc1 (centres undefined),37.5 µg/mL,9.37 µg/mL,4.68 µg/mL,18.8 µg/mL,4.68 µg/mL,18.8 µg/mL,4.68 µg/mL,9.37 µg/mL,18.8 µg/mL,9.37 µg/mL,9.37 µg/mL,9.37 µg/mL,9.37 µg/mL,18.8 µg/mL,9.37 µg/mL,18.8 µg/mL,4.68 µg/mL,9.37 µg/mL,37.5 µg/mL,4.68 µg/mL,MIC [21]: 9.37 µg/mL; MIC [22]: 4.68 µg/mL; MIC [23]: 18.8 µg/mL; MIC [24]: 9.37 µg/mL
O=C1Nc2ccc(Cl)cc2/C1=N/N1C(=O)CSC1c1ccc(F)cc1 (centres undefined),18.8 µg/mL,4.68 µg/mL,4.68 µg/mL,9.37 µg/mL,4.68 µg/mL,18.8 µg/mL,9.37 µg/mL,18.8 µg/mL,18.8 µg/mL,9.37 µg/mL,18.8 µg/mL,4.68 µg/mL,9.37 µg/mL,9.37 µg/mL,4.68 µg/mL,9.37 µg/mL,9.37 µg/mL,9.37 µg/mL,18.8 µg/mL,9.37 µg/mL,MIC [21]: 9.37 µg/mL; MIC [22]: 9.37 µg/mL; MIC [23]: 9.37 µg/mL; MIC [24]: 18.8 µg/mL
